Measured values reported in patent US8598374B2, “GPR120 receptor agonists and uses thereof” (Metabolex, Inc, priority 2008, dated 2013).

Target: T1, human GPR120 (Homo sapiens, UniProt Q5NUL3)
T1 construct: Flag (DYKDDDDK) (N); host or cells: HEK293 cells co-expressing Gqi5
T1 sequence (Q5NUL3 1-361): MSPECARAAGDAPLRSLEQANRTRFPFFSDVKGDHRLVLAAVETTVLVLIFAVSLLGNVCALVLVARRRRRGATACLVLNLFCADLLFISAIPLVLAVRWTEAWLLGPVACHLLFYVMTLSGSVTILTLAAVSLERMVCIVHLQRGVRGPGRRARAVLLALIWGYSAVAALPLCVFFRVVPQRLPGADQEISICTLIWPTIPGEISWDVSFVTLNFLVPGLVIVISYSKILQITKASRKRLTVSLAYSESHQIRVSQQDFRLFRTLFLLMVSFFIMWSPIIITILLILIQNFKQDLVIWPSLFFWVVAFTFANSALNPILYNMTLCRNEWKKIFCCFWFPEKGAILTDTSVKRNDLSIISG
Test: Intracellular Ca2+ assay (FLIPR Calcium 4, Flexstation) in human GPR120 stable cell line
Assay type: cell-based
Conditions: for % Activity (Ex. 25 Reference Compound): % activity at 2.5 μM compared to the maximal activity of the compound of Example 25 at 2.5 μM, HEK293 cells co-expressing Gqi5; for EC50: human GPR120 stably expressing cells, eight concentrations from 0.00001 to 20 μM
Method: Human GPR120 stable cell line was purchased from Multispan Inc (26219 Eden Landing Road, Hayward, Calif. 94545). This GPR120 cell line was generated in HEK293 cells co-expressing Gqi5. In this cell line, the Flag epitope tag (DYKDDDDK) was fused to the amino terminus of human GPR120 protein.
The concentration of intracellular Ca^2+ was measured as described below. Human GPR120 cells were plated in 96 well plates (Poly-D-Lysine coated black/clear Plate, Greiner Bio-One) at 70,000 cells per well and cultured overnight in conditions of 37° C. and 5% CO2. A Ca^2+ assay dye stock solution was prepared by adding 10 mL of assay buffer (HBSS/20 mM HEPES, pH 7.4) to FLIPR Calcium 4 Assay Bulk Kit (Molecular Devices). The 10 mL of Ca^2+ assay dye solution was prepared by further diluting 0.5 mL of Ca^2+ assay dye stock solution with 10 mL of assay buffer. The medium of the cells was removed and immediately 100 μL of the Ca^2+ assay dye solution was dispensed into each well followed by incubation at 37° C. and 5% CO2 for 50 minutes to incorporate the Ca^2+ dye into the cells. The cell plate was then placed in the Flexstation (Molecular Devices) for 20 minutes at 37° C. Compounds were dissolved in 100% DMSO and diluted to desired concentrations with assay buffer and placed in the Flexstation simultaneously with the cell plate for 20 minute incubation at 37° C. prior to reading. Fluorescence intensity was measured immediately following compound addition (25 μL/well) on the Flexstation at an excitation wavelength of 485 nm and an emission wavelength of 525 with 515 nm auto cutoff. The resulting increase in fluorescence intensities corresponds to increases in intracellular Ca^2+ levels.
Compounds were dissolved in 100% DMSO to a concentration of 20 mM to provide stock solutions. To determine activity against human GPR120, compounds were added with human GPR120 stably expressing cells (described above), at eight desired concentrations ranging from 0.00001 to 20 μM, in 96 well plates and fluorescence intensities were measured for 90 seconds with 2-second intervals. An EC50 value (concentration of the GPR120 agonist where 50% of the agonist's maximal activity is observed) was calculated using the changes (Max-Min) of fluorescence intensity.
To determine percent activity for a tested compound, the fluorescence intensity value obtained at a particular concentration were compared to the maximal fluorescence intensity value obtained for reference compound GW9508 (4-[[(3-phenoxyphenyl)methyl]amino]benzene propanoic acid; British Journal of Pharmacology 2006 148, 619-628) or the compound of Example 25. When GW9508 was used as the reference compound, the maximal activity of GW9508 at 6.7 μM was designated as 100% activity. When the compound of Example 25 was used as the reference compound, the maximal activity of the compound of Example 25 at 2.5 μM was designated as 100% activity. Typically, the GW9508 activity reached a maximum at a concentration of approximately 6.7 μM and typically the compound of Example 25 reached a maximum activity at approximately 2.5 μM.

Compound | % Activity (Ex. 25 Reference Compound) [%] | EC50 [µM]
CC1(C)Cc2cc(F)cc(COc3c(F)cc(CC4CC4C(=O)O)cc3F)c2O1 (single isomer, unassigned) [Example 184B, 2-(3,5-difluoro-4-((5-fluoro-2,2-dimethyl-2,3-dihydrobenzofuran-7-yl)methoxy)benzyl)cyclopropanecarboxylic acid] | 130.66 | 
CC1(C)Cc2cc(F)cc(COc3ccc(CC(=O)O)cc3)c2O1 [Example 133, 2-(4-((5-fluoro-2,2-dimethyl-2,3-dihydrobenzofuran-7-yl)methoxy)phenyl)acetic acid] | 103.4 | 
CC(Cc1cc(F)c(OCc2cccc3cn[nH]c23)c(F)c1)C(=O)O (centres unmarked) [Example 260, 3-(4-((1H-indazol-7-yl)methoxy)-3,5-difluorophenyl)-2-methylpropanoic acid] | 16.67 | 
CC1(C)Cc2cc(Cl)cc(COc3cc(F)c(CCC(=O)O)c(F)c3)c2O1 [Example 54, 3-(4-((5-chloro-2,2-dimethyl-2,3-dihydrobenzofuran-7-yl)methoxy)-2,6-difluorophenyl)propanoic acid] | 138.97 | 1 to 10
CC1(C)Cc2cc(Cl)cc(COc3ccccc3CCC(=O)O)c2O1 [Example 250, 3-(2-((5-chloro-2,2-dimethyl-2,3-dihydrobenzofuran-7-yl)methoxy)phenyl)propanoic acid] | 10.23 | 
CC(Cc1ccc(OCc2cc(Cl)cc3c2OC(C)(C)C3O)c(F)c1)C(=O)O (centres unmarked) [Example 80, 3-(4-((5-chloro-3-hydroxy-2,2-dimethyl-2,3-dihydrobenzofuran-7-yl)methoxy)-3-fluorophenyl)-2-methylpropanoic acid] | 86.25 | 
CC1(C)Cc2cc(Cl)cc(COc3ccc(CCC(=O)O)c4c3CCC4)c2O1 [Example 64, 3-(7-((5-chloro-2,2-dimethyl-2,3-dihydrobenzofuran-7-yl)methoxy)-2,3-dihydro-1H-inden-4-yl)propanoic acid] |  | 1 to 10
CC(Cc1ccc(NC(=O)c2cc(F)cc3c2OC(C)(C)C3)cc1)C(=O)O (centres unmarked) [Example 68, 3-(4-(5-fluoro-2,2-dimethyl-2,3-dihydrobenzofuran-7-carboxamido)phenyl)-2-methylpropanoic acid] | 69.03 | 
CC(Cc1ccc(COc2cccc3c2OC(C)(C)C3)c(F)c1)C(=O)O (centres unmarked) [Example 44, 3-(4-(((2,2-dimethyl-2,3-dihydrobenzofuran-7-yl)oxy)methyl)-3-fluorophenyl)-2-methylpropanoic acid] | 157.14 | 
CC(Cc1ccc(OCc2cc(Cl)cc3c2OC(C)(C)C3=O)c(C(F)(F)F)c1)C(=O)O (centres unmarked) [Example 79, 3-(4-((5-chloro-2,2-dimethyl-3-oxo-2,3-dihydrobenzofuran-7-yl)methoxy)-3-(trifluoromethyl)phenyl)-2-methylpropanoic acid] | 3.85 | 
CC1(C)Cc2c(COc3ccc4c(c3)CCC4CC(=O)O)ccc(F)c2O1 (centres unmarked) [Example 94, 2-(5-((7-fluoro-2,2-dimethyl-2,3-dihydrobenzofuran-4-yl)methoxy)-2,3-dihydro-1H-inden-1-yl)acetic acid] | 98.45 | 
CC1(C)Cc2cc(F)cc(COc3ccc(CCCC(=O)O)cc3)c2O1 [Example 160, 4-(4-((5-fluoro-2,2-dimethyl-2,3-dihydrobenzofuran-7-yl)methoxy)phenyl)butanoic acid] | 172.13 | 
Cc1cc2c(OCc3cc(F)cc4c3OC(C)(C)C4)ccc(CCC(=O)O)c2o1 [Example 125, 3-(4-((5-fluoro-2,2-dimethyl-2,3-dihydrobenzofuran-7-yl)methoxy)-2-methylbenzofuran-7-yl)propanoic acid] | 32.57 | 1 to 10
[2H]C([2H])(Oc1ccc(CC(C)C(=O)O)cc1C(F)(F)F)c1cc(F)cc2c1OC(C)(C)C2 (centres unmarked) [Example 231, 3-(4-(dideuterio(5-fluoro-2,2-dimethyl-2,3-dihydrobenzofuran-7-yl)methoxy)-3-(trifluoromethyl)phenyl)-2-methylpropanoic acid] | 101.01 | 
CC1(C)Cc2cc(F)cc(COc3ccc(C4CC4C(=O)O)cc3)c2O1 (single isomer, unassigned) [Example 131A, 2-(4-((5-fluoro-2,2-dimethyl-2,3-dihydrobenzofuran-7-yl)methoxy)phenyl)cyclopropanecarboxylic acid] | 103.75 | 
CN(C)Cc1cc(OCc2cc(F)cc3c2OC(C)(C)C3)ccc1CCC(=O)O [Example 122, 3-(2-((dimethylamino)methyl)-4-((5-fluoro-2,2-dimethyl-2,3-dihydrobenzofuran-7-yl)methoxy)phenyl)propanoic acid] | 3.58 | 
O=C(O)C1CC1c1ccc(OCc2cc(F)cc3c2OC2(CCCC2)C3)cc1 (centres unmarked) [Example 165, 2-(4-((5-fluoro-3H-spiro[benzofuran-2,1′-cyclopentane]-7-yl)methoxy)phenyl)cyclopropanecarboxylic acid] | 158.08 | 
CCN(CC)c1cc(COc2ccc(CC(C)C(=O)O)cc2)c2c(c1)CC(C)(C)O2 (centres unmarked) [Example 89, 3-(4-((5-(diethylamino)-2,2-dimethyl-2,3-dihydrobenzofuran-7-yl)methoxy)phenyl)-2-methylpropanoic acid] | 82.28 | 1 to 10
CC1(C)Cc2cc(Cl)cc(COc3ccc4c(c3)CC(C(=O)O)C4)c2O1 (centres unmarked) [Example 112, 5-((5-chloro-2,2-dimethyl-2,3-dihydrobenzofuran-7-yl)methoxy)-2,3-dihydro-1H-indene-2-carboxylic acid] | 115.42 | 
CC(Cc1cccc(OCc2cc(Cl)cc3c2OC(C)(C)C3)c1)C(=O)O (centres unmarked) [Example 251, 3-(3-((5-chloro-2,2-dimethyl-2,3-dihydrobenzofuran-7-yl)methoxy)phenyl)-2-methylpropanoic acid] | 61.14 | 
CC1(C)Cc2cc(F)cc(COc3ccc(CCC(=O)O)c(Cl)c3)c2O1 [Example 47, 3-(2-chloro-4-((5-fluoro-2,2-dimethyl-2,3-dihydrobenzofuran-7-yl)methoxy)phenyl)propanoic acid] | 111.18 | 1 to 10
CC1(C)Cc2cc(Cl)cc(COc3ccc(CCC(=O)O)c(C(F)(F)F)c3)c2O1 [Example 62, 3-(4-((5-chloro-2,2-dimethyl-2,3-dihydrobenzofuran-7-yl)methoxy)-2-(trifluoromethyl)phenyl)propanoic acid] |  | 1 to 10
CC1(C)Cc2cc(Cl)cc(COc3ccc(CCC(=O)O)c(-c4ccccc4)c3)c2O1 [Example 71, 3-(5-((5-chloro-2,2-dimethyl-2,3-dihydrobenzofuran-7-yl)methoxy)-[1,1′-biphenyl]-2-yl)propanoic acid] | 133.8 | 
C[C@@H](Cc1ccc(OCc2cc(F)cc3c2OC(C)(C)C3)cc1)C(=O)O [Example 66, (S)-3-(4-((5-fluoro-2,2-dimethyl-2,3-dihydrobenzofuran-7-yl)methoxy)phenyl)-2-methylpropanoic acid] |  | 1 to 10
CC1(C)Cc2cc(F)cc(COc3ccc4c(c3)CC[C@H]4CC(=O)O)c2O1 [Example 175, (S)-2-(5-((5-fluoro-2,2-dimethyl-2,3-dihydrobenzofuran-7-yl)methoxy)-2,3-dihydro-1H-inden-1-yl)acetic acid] | 152.44 | 
